From ChEMBL document CHEMBL6121054, “Discovery of Metabolic Reprogramming 2-Quinolones as Effective Antimicrobials for MRSA-Infected Wound Therapy” (J Med Chem, 2025)
≈ marks a conversion by molar mass, not a printed value. Calls of active or inactive are those of the source. The rule behind the calls is not given here.

How the values were obtained:
Acinetobacter baumannii [1] = experiment: Antibacterial activity against Acinetobacter baumannii ATCC 17978 incubated for 16 to 24 hrs by broth microdilution method; assay type: functional; conditions: time 16-24 hrs
Staphylococcus aureus [2] = experiment: Antibacterial activity against methicillin-resistant Staphylococcus aureus infected in BALB/c mouse wound model assessed as reversal of inflammation-induced IL-1beta level in wound at 20 to 80 mg/kg administered topically on days 0, 3 and 6 measured after 12 days by ELISA; assay type: functional, organism-based; conditions: dose 20-80 mg/kg, route top, time 12.0 day
Staphylococcus aureus [3] = experiment: Disruption of cell membrane integrity in Staphylococcus aureus USA300 assessed as indistinct cytoplasmic borders at 4 to 8 times MIC by TEM/SEM analysis; assay type: functional, organism-based
Staphylococcus aureus [4] = experiment: Eradication of mature biofilm formation in Staphylococcus aureus USA300 incubated for 12 hrs by crystal violet staining based analysis; assay type: functional, organism-based
Staphylococcus aureus [5] = experiment: Antibacterial activity against methicillin-resistant Staphylococcus aureus infected in BALB/c mouse wound model assessed as reduction in bacterial load at 20 to 80 mg/kg administered topically on days 0, 3 and 6 measured after 6 days; assay type: functional, organism-based; conditions: dose 20-80 mg/kg, route top, time 6.0 day
Staphylococcus aureus [6] = experiment: Bacteriostatic activity against methicillin-resistant Staphylococcus aureus USA300 at 1 to 2 times MIC measured upto 24 hrs by time-kill assay; assay type: functional, organism-based
Staphylococcus aureus [7] = experiment: Antibacterial activity against Staphylococcus aureus USA300 assessed as acceleration of TCA cycle measured by increase in gltA mRNA level upto 0.25 ug/ml incubated for 6 hrs by RT-PCR analysis; assay type: functional, organism-based; conditions: dose <= 0.25 µg/ml
Klebsiella pneumoniae [8] = experiment: Antibacterial activity against Klebsiella pneumoniae 13b5 incubated for 16 to 24 hrs by broth microdilution method; assay type: functional; conditions: time 16-24 hrs
Escherichia coli [9] = experiment: Antibacterial activity against Escherichia coli […] incubated for 16 to 24 hrs by broth microdilution method; assay type: functional; conditions: time 16-24 hrs
Staphylococcus aureus [10] = experiment: Bactericidal activity against methicillin-resistant Staphylococcus aureus MRSA 2; assay type: functional
Staphylococcus aureus [11] = experiment: Antibacterial activity against methicillin-resistant Staphylococcus aureus MRSA 1 incubated for 16 to 24 hrs by broth microdilution method; assay type: functional; conditions: Staphylococcus aureus, MRSA 1, time 16-24 hrs; read-out: MIC
Staphylococcus aureus [12] = experiment: Bactericidal activity against Staphylococcus aureus USA400; assay type: functional
Listeria monocytogenes [13] = experiment: Inhibition of biofilm formation in Listeria monocytogenes EGD incubated for 24 hrs by crystal violet staining based analysis; assay type: functional, organism-based; conditions: dose <= 0.13 µg/ml
Staphylococcus aureus [14] = experiment: Disruption of cell membrane integrity in Staphylococcus aureus USA300 assessed as swelling at 4 to 8 times MIC by TEM/SEM analysis; assay type: functional, organism-based
Acinetobacter baumannii [15] = experiment: Bactericidal activity against Acinetobacter baumannii ATCC 17978; assay type: functional
Staphylococcus aureus [16] = experiment: Disruption of cell membrane integrity in Staphylococcus aureus USA300 assessed as increase in red fluorescence at 1 to 4 times MIC by SYTO-9/PI dye based CLSM analysis; assay type: functional, organism-based
Staphylococcus aureus [17] = experiment: Antibacterial activity against Staphylococcus aureus USA400 incubated for 16 to 24 hrs by broth microdilution method; assay type: functional; conditions: time 16-24 hrs
Listeria monocytogenes [18] = experiment: Bactericidal activity against Listeria monocytogenes ATCC 19115; assay type: functional
Staphylococcus aureus [19] = experiment: Bactericidal activity against Staphylococcus aureus ATCC 25904; assay type: functional
Staphylococcus aureus [20] = experiment: Antibacterial activity against Staphylococcus aureus ATCC 25904 incubated for 16 to 24 hrs by broth microdilution method; assay type: functional; conditions: time 16-24 hrs
Staphylococcus aureus [21] = experiment: Antibacterial activity against Staphylococcus aureus NCTC 8325-4 incubated for 16 to 24 hrs by broth microdilution method; assay type: functional; conditions: time 16-24 hrs
Staphylococcus aureus [22] = experiment: Disruption of cell membrane integrity in Staphylococcus aureus USA300 assessed as visible cavity formation on surface at 4 to 8 times MIC by TEM/SEM analysis; assay type: functional, organism-based
Staphylococcus aureus [23] = experiment: Antibacterial activity against Staphylococcus aureus USA300 assessed as acceleration of TCA cycle measured by increase in icd mRNA level upto 0.25 ug/ml incubated for 6 hrs by RT-PCR analysis; assay type: functional, organism-based; conditions: dose <= 0.25 µg/ml
Staphylococcus aureus [24] = experiment: Effect on tyrosine metabolism in Staphylococcus aureus USA300 at 4 times MIC by KEGG analysis; assay type: functional, organism-based
Caco-2 = experiment: Cytotoxicity against human Caco-2 cells assessed as cell viability upto 8 ug/ml incubated for 6 hrs by LDH assay; assay type: toxicity, cell-based; conditions: caco-2, 6 h, dose < 8 µg/ml
Staphylococcus aureus [25] = experiment: Antibacterial activity against methicillin-resistant Staphylococcus aureus infected in BALB/c mouse wound model assessed as reversal of inflammation-induced TNF-alpha level in wound at 20 to 80 mg/kg administered topically on days 0, 3 and 6 measured after 12 days by ELISA; assay type: functional, organism-based; conditions: dose 20-80 mg/kg, route top, time 12.0 day
Staphylococcus aureus [26] = experiment: Effect on TCA cycle in Staphylococcus aureus USA300 at 4 times MIC by KEGG analysis; assay type: functional, organism-based
Staphylococcus aureus [27] = experiment: Disruption of cell membrane integrity in Staphylococcus aureus USA300 assessed as irregular cell structures at 4 to 8 times MIC by TEM/SEM analysis; assay type: functional, organism-based
Staphylococcus aureus [28] = experiment: Antibacterial activity against methicillin-resistant Staphylococcus aureus infected in BALB/c mouse wound model assessed as increase in thickness of granulation tissue at 20 to 80 mg/kg administered topically on days 0, 3 and 6 measured for 6 to 12 days by H and E staining based analysis; assay type: functional, organism-based; conditions: dose 20-80 mg/kg, route top, time 6-12 day
Staphylococcus aureus [29] = experiment: Effect on purine metabolism in Staphylococcus aureus USA300 at 4 times MIC by KEGG analysis; assay type: functional, organism-based
Staphylococcus aureus [30] = experiment: Antibacterial activity against Staphylococcus aureus DU1090 incubated for 16 to 24 hrs by broth microdilution method; assay type: functional; conditions: time 16-24 hrs
Staphylococcus aureus [31] = experiment: Bactericidal activity against Staphylococcus aureus USA300; assay type: functional
Staphylococcus aureus [32] = experiment: Bactericidal activity against Staphylococcus aureus ATCC 29213; assay type: functional
Klebsiella pneumoniae [33] = experiment: Bactericidal activity against Klebsiella pneumoniae E8.31; assay type: functional
Staphylococcus aureus [34] = experiment: Effect on histidine metabolism in Staphylococcus aureus USA300 at 4 times MIC by KEGG analysis; assay type: functional, organism-based
Staphylococcus aureus [35] = experiment: Inhibition of biofilm formation in Staphylococcus aureus USA300 upto 0.13 ug/ml incubated for 24 hrs by crystal violet staining based analysis; assay type: functional, organism-based; conditions: dose <= 0.13 µg/ml
Staphylococcus aureus [36] = experiment: Antibacterial activity against Staphylococcus aureus ATCC 25923 incubated for 16 to 24 hrs by broth microdilution method; assay type: functional; conditions: time 16-24 hrs
Escherichia coli [37] = experiment: Bactericidal activity against Escherichia coli ATCC 25922; assay type: functional
Staphylococcus aureus [38] = experiment: Antibacterial activity against Staphylococcus aureus USA300 incubated for 16 to 24 hrs by broth microdilution method; assay type: functional; conditions: time 16-24 hrs
Staphylococcus aureus [39] = experiment: Antibacterial activity against methicillin-resistant Staphylococcus aureus infected in BALB/c mouse wound model assessed as reversal of inflammation-induced IL-6 level in wound at 20 to 80 mg/kg administered topically on days 0, 3 and 6 measured after 12 days by ELISA; assay type: functional, organism-based; conditions: dose 20-80 mg/kg, route top, time 12.0 day
Acinetobacter baumannii [40] = experiment: Bactericidal activity against Acinetobacter baumannii ATCC 19606; assay type: functional
Staphylococcus aureus [41] = experiment: Upregulation of ATP level in Staphylococcus aureus USA300 upto 0.25 ug/ml incubated for 5 hrs; assay type: functional, organism-based; conditions: dose <= 0.25 µg/ml
Klebsiella pneumoniae [42] = experiment: Antibacterial activity against Klebsiella pneumoniae E8.31 incubated for 16 to 24 hrs by broth microdilution method; assay type: functional; conditions: time 16-24 hrs
Staphylococcus aureus [43] = experiment: Bactericidal activity against Staphylococcus aureus ATCC 25923; assay type: functional
Escherichia coli [44] = experiment: Bactericidal activity against Escherichia coli ATCC ZJ487; assay type: functional

SMILES: CCn1c(=O)c(C(=O)Nc2nnc(-c3ccc(C)cn3)s2)c(O)c2ccccc21
- MIC (Acinetobacter baumannii [1]): > 512 µg/mL
- Activity (Staphylococcus aureus [2]): Active
- Activity (Staphylococcus aureus [3]): Active
- Activity (Staphylococcus aureus [4]): Active
- Activity (Staphylococcus aureus [5]): inactive
- Activity (Staphylococcus aureus [6]): Active
- Activity (Staphylococcus aureus [7]): Active
- MIC (Klebsiella pneumoniae [8]): > 512 µg/mL
- MIC (Escherichia coli [9]): > 512 µg/mL
- MBC (Staphylococcus aureus [10]): 0.05 µg/mL (≈ 0.123 µM)
- MIC (Staphylococcus aureus [11]): 0.02 µg/mL (≈ 0.0491 µM)
- MBC (Staphylococcus aureus [12]): 0.05 µg/mL (≈ 0.123 µM)
- inhibition (Listeria monocytogenes [13]): Dose-dependent-effect
- Activity (Staphylococcus aureus [14]): Active
- MBC (Acinetobacter baumannii [15]): > 512 µg/mL
- Activity (Staphylococcus aureus [16]): Active
- MIC (Staphylococcus aureus [17]): 0.03 µg/mL (≈ 0.0736 µM)
- MBC (Listeria monocytogenes [18]): > 0.25 µg/mL
- MBC (Staphylococcus aureus [19]): 0.17 µg/mL (≈ 0.417 µM)
- MIC (Staphylococcus aureus [20]): 0.02 µg/mL (≈ 0.0491 µM)
- MIC (Staphylococcus aureus [21]): 0.03 µg/mL (≈ 0.0736 µM)
- Activity (Staphylococcus aureus [22]): Active
- Activity (Staphylococcus aureus [23]): Active
- Activity (Staphylococcus aureus [24]): Active
- Activity (Caco-2): Non-toxic
- Activity (Staphylococcus aureus [25]): Active
- Activity (Staphylococcus aureus [26]): Active
- Activity (Staphylococcus aureus [27]): Active
- Activity (Staphylococcus aureus [28]): Active
- Activity (Staphylococcus aureus [29]): Active
- MIC (Staphylococcus aureus [30]): 0.02 µg/mL (≈ 0.0491 µM)
- MBC (Staphylococcus aureus [31]): 0.16 µg/mL (≈ 0.393 µM)
- MBC (Staphylococcus aureus [32]): 0.15 µg/mL (≈ 0.368 µM)
- MBC (Klebsiella pneumoniae [33]): > 512 µg/mL
- Activity (Staphylococcus aureus [34]): Active
- inhibition (Staphylococcus aureus [35]): Active
- MIC (Staphylococcus aureus [36]): 0.03 µg/mL (≈ 0.0736 µM)
- MBC (Escherichia coli [37]): > 512 µg/mL
- MIC (Staphylococcus aureus [38]): 0.04 µg/mL (≈ 0.0982 µM)
- Activity (Staphylococcus aureus [39]): Active
- MBC (Acinetobacter baumannii [40]): > 512 µg/mL
- Activity (Staphylococcus aureus [41]): Active
- MIC (Klebsiella pneumoniae [42]): > 512 µg/mL
- MBC (Staphylococcus aureus [43]): 0.1 µg/mL (≈ 0.245 µM)
- MBC (Escherichia coli [44]): > 512 µg/mL
